Here are results for 55 compounds from US10124004B2, “Pyrido[3,4-d]pyrimidine derivative and pharmaceutically acceptable salt thereof” (Teijin Pharma Limited, priority 2015, dated 2018).

Structures are written as SMILES.

In one assay the target is T1, CDK4/cyclin D3 (Homo sapiens, UniProt P11802).
T1 construct: purchased Carna Biosciences, Inc. QS S Assist CDK4/Cyclin D3_FP Kit
T1 sequence (P11802 whole entry): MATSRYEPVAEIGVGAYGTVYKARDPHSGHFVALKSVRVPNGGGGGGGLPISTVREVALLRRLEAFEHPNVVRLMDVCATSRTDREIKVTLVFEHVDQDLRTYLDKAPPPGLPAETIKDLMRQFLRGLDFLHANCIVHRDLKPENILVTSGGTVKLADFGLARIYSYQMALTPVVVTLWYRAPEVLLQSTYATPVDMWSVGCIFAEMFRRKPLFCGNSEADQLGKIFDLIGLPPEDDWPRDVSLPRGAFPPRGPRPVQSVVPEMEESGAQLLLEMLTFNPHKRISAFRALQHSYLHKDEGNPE
T1 sequence (P30281 whole entry partner): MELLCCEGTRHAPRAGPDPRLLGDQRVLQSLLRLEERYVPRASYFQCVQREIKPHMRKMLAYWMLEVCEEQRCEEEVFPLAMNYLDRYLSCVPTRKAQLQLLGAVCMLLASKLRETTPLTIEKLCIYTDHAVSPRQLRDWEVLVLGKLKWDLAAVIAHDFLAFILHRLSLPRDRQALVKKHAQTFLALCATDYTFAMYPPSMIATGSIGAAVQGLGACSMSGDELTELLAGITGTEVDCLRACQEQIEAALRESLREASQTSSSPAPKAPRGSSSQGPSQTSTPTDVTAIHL
Briefly: Human CDK4/cyclin D3 inhibitory activity (QS S Assist CDK4/Cyclin D3_FP Kit, IMAP fluorescence polarization). The following applies: 50% inhibitory concentration against CDK4/cyclin D3, given as class symbol. It counts as biochemical. The protocol: Human CDK4/Cyclin D3 Inhibitory Activity
Each compound was analyzed for CDK4/cyclin D3 inhibitory activity with an assay kit (QS S Assist CDK4/Cyclin D3_FP Kit, available from Carna Biosciences, Inc.). This assay kit determines kinase activity on the basis of the IMAP technology by Molecular Devices. Specifically, the kinase activity is determined through quantification of a variation in fluorescent polarization caused by binding of a kinase-phosphorylated fluorescent substance to an IMAP-binding reagent.
Each solution was prepared with the 10× assay buffer attached to the kit or a separately prepared assay buffer having the same composition as the assay buffer attached to the kit. An assay buffer was prepared by 10-fold dilution of the 10× assay buffer with distilled water. The assay buffer contains 20 mM HEPES (pH 7.4), 0.01% Tween20, and 2 mM dithiothreitol. A test compound solution was prepared by dilution of the test compound with dimethyl sulfoxide (DMSO) to a concentration 100 times higher than the final concentration and then 25-fold dilution with the assay buffer to a concentration four times higher than the final concentration. An ATP/substrate/Metal solution was prepared by five-fold dilution of the 5×ATP/substrate/Metal solution attached to the kit with the assay buffer. An enzyme solution was prepared by dilution of the CDK4/cyclin D3 attached to the kit with the assay buffer to a concentration twice higher than the final concentration (final concentration of CDK4/cyclin D3:12.5 to 25 ng/well). A detection reagent was prepared by five-fold dilution of each of 5× IMAP-binding buffer A and 5×IMAP-binding buffer B with distilled water, mixing of IMAP-binding buffer A with IMAP-binding buffer B at a ratio of 85:15, and 400-fold dilution of the IMAP-binding reagent with the mixed buffer.
The test compound solution (5 μL/well) and the ATP/substrate/Metal solution (5 μL/well) were added to a 384-well plate, and the enzyme solution or the assay buffer (10 μL/well) was added to the plate (total amount of the reaction mixture: 20 μL/well) for initiation of enzymatic reaction. […] The reaction was performed at room temperature for 45 minutes, and the detection reagent (60 μL/well) was then added to the plate, followed by further reaction for 30 minutes at room temperature under light shielding conditions. Subsequently, fluorescent polarization was determined with a microplate reader at an excitation wavelength of 485 nm and an emission wavelength of 535 nm.
The percent inhibition of enzyme activity was calculated for each test compound (note: enzyme activity=100% in the case of addition of the enzyme solution and addition of DMSO instead of the test compound solution, whereas enzyme activity=0% in the case of addition of the assay buffer instead of the enzyme solution, and addition of DMSO instead of the test compound solution). The percent inhibition of enzyme activity was fitted to a dose-response curve, to determine a 50% inhibitory concentration against CDK4/cyclin D3.
In each table, “+++” corresponds to IC50<10 nM, “++” 10 nM≤IC50<100 nM, and “+” 100 nM≤IC50.
(In general: Fluorescence polarisation rises when a labelled molecule tumbles more slowly, as on binding a larger partner.)
Regarding `CC(C)Nc1nc([C@@H](C)O)cc2cnc(Nc3ccc(N4CC5CC(C4)C5O)nn3)nc12` (stereo partly shown) [Compound 687], the IC50 was < 10 nM.
In the case of `CC(C)Nc1nc(C(C)O)cc2cnc(Nc3ccc(N4CCC(O)C(C)C4)nn3)nc12` (single isomer, unassigned) [Compound 704], the IC50 was < 10 nM.
`CC(C)Nc1nc(C(C)O)cc2cnc(Nc3ccc(N4CCC(O)C(C)C4)nn3)nc12` (single isomer, unassigned) [Compound 705]: the IC50 was < 10 nM.

Staying with this assay, now noted: Human CDK4/cyclin D3 inhibitory activity; read-out: CDK4 Activity symbol.
Take `C[C@@H](O)c1cc2cnc(Nc3ccc(N4CCNC(C)(C)C4=O)cn3)nc2c(NC2CCOCC2)n1` [Compound 441]: the IC50 was ≥ 100 nM.
Take `COC(C)c1cc2cnc(Nc3ccc(O[C@@H]4CCNC[C@H]4F)cn3)nc2c(NC(C)C)n1` (relative stereo) [Compound 459]: the IC50 is < 10 nM.
On the same count and under the same terms, to `COC(C)c1cc2cnc(Nc3ccc(CN4CCNCC4)cn3)nc2c(NCCC2CCCO2)n1` (stereo not shown) [Compound 429] belongs < 10 nM; to `CNC1C2CCC1CN(c1ccc(Nc3ncc4cc([C@@H](C)OC)nc(NC(C)C)c4n3)nc1)C2` (stereo partly shown) [Compound 503], < 10 nM; to `CO[C@H](C)c1cc2cnc(Nc3ccc(N4CC5(CC(N)C5)C4)cn3)nc2c(NC(C)C)n1` [Compound 484], < 10 nM.
As for `COCC(C)(C)Nc1nc([C@@H](C)O)cc2cnc(Nc3ncc(N4CCNCC4)cn3)nc12` [Compound 375], the IC50 was ≥ 100 nM.
On to `CO[C@H](C)c1cc2cnc(Nc3ccc(CN4CCNC5(CC5)C4)cn3)nc2c(NC(C)C)n1` [Compound 535], for which the IC50 is < 10 nM.
Regarding `CC(C)Nc1nc([C@@H](C)O)cc2cnc(Nc3ccc(N4CCN(C(C)CO)CC4=O)cn3)nc12` (stereo partly shown) [Compound 598], the IC50 is < 10 nM.
In the case of `COC(C)c1cc2cnc(Nc3ccc(CN4CCNCC4)cn3)nc2c(NC(C)C2CCCO2)n1` (stereo not shown) [Compound 409], the IC50 was < 10 nM.
`COC(C)c1cc2cnc(Nc3ccc(CN4CCNCC4)cn3)nc2c(NC[C@H]2CCCO2)n1` (stereo partly shown) [Compound 411]: the IC50 is < 10 nM.
In the case of `COC(C)c1cc2cnc(Nc3ccc(CN4CCNCC4)cn3)nc2c(Nc2cccc(C(=O)O)c2)n1` (stereo not shown) [Compound 449], the IC50 was ≥ 100 nM.
The same measure, in the same setting: to `COC(C)c1cc2cnc(Nc3ccc(CN4CCNCC4)cn3)nc2c(NC2(CO)CCOCC2)n1` (stereo not shown) [Compound 433] belongs 10 to 100 nM; to `COC(C)c1cc2cnc(Nc3ccc(CN4CCNCC4)cn3)nc2c(NCCC2CCCOC2)n1` (stereo not shown) [Compound 431], < 10 nM; to `CC(C)Nc1nc([C@@H](C)O)cc2cnc(Nc3ccc(N4CCNCC(C)(C)C4=O)cn3)nc12` [Compound 543], < 10 nM.
As to `CC(C)Nc1nc(C(F)F)cc2cnc(Nc3ccc(N4CCNC(C)(C)C4=O)cn3)nc12` [Compound 438], the IC50 is < 10 nM.
As for `CC(C)Nc1nc([C@@H](C)O)cc2cnc(Nc3ccc(OC4CCNC4)nn3)nc12` (stereo partly shown) [Compound 544], the IC50 is < 10 nM.
As for `COc1cccc(Nc2nc(C(C)OC)cc3cnc(Nc4ccc(CN5CCNCC5)cn4)nc23)c1` (stereo not shown) [Compound 451], the IC50 is < 10 nM.
Turning to `CNCCOc1ccc(Nc2ncc3cc([C@@H](C)O)nc(NC(C)C)c3n2)nn1` [Compound 552], the IC50 is < 10 nM.
With `COC(C)c1cc2cnc(Nc3ccc(CN4CCNCC4)cn3)nc2c(NC2CCCN(C(C)=O)C2)n1` (stereo not shown) [Compound 405], the IC50 lay within 10 to 100 nM.
With `CNCCOc1ccc(Nc2ncc3cc([C@@H](C)OC)nc(NC(C)C)c3n2)nn1` [Compound 551], the IC50 fell in the range of 10 to 100 nM.
As to `COC(C)c1cc2cnc(Nc3ccc(OCC(C)(C)N)cn3)nc2c(NC(C)C)n1` (stereo not shown) [Compound 458], the IC50 is < 10 nM.
Turning to `CC(C)Nc1nc([C@@H](C)O)cc2cnc(Nc3ccc(OC4CNC4)nn3)nc12` [Compound 546], the IC50 was < 10 nM.
Consider `CC1(C)NCCN(c2ccc(Nc3ncc4cc(C(F)F)nc(NC5CCOCC5)c4n3)nc2)C1=O` [Compound 439], for which the IC50 fell in the range of 10 to 100 nM.
As to `CO[C@H](C)c1cc2cnc(Nc3ccc(N4CCN[C@H](C)C4=O)cn3)nc2c(NC(C)C)n1` [Compound 462], the IC50 was in the range of 10 to 100 nM.
Regarding `CNC1CCN(c2ccc(Nc3ncc4cc(C(C)OC)nc(NC(C)C)c4n3)nn2)CC1` (stereo not shown) [Compound 452], the IC50 is < 10 nM.
Regarding `CO[C@H](C)c1cc2cnc(Nc3ccc(N4CCC(F)CC4)cn3)nc2c(NC(C)C)n1` [Compound 469], the IC50 was 10 to 100 nM.
Still for that read-out and setting: the figure for `CNC1(C)CCN(c2ccc(Nc3ncc4cc([C@@H](C)OC)nc(NC(C)C)c4n3)nn2)CC1` [Compound 594] is < 10 nM.
As for `CC(C)Nc1nc([C@@H](C)O)cc2cnc(Nc3ccc(N4CCN(CC(C)(C)C)CC4)nn3)nc12` [Compound 587], the IC50 is < 10 nM.
Same read-out and setting: the figure for `COC(C)c1cc2cnc(Nc3ccc(CN4CCNCC4)cn3)nc2c(N(C)C(C)C)n1` (stereo not shown) [Compound 391] is 10 to 100 nM; for `CO[C@H](C)c1cc2cnc(Nc3ccc(CN4CCNC(C)(C)C4)cn3)nc2c(NC(C)C)n1` [Compound 534] it is < 10 nM; for `CC(C)Nc1nc(C(C)O)cc2cnc(Nc3ccc(OC4CNCCC4F)cn3)nc12` (stereo not shown) [Compound 577] it is < 10 nM.
For the compound `COC(C)c1cc2cnc(Nc3ccc(CN4CCNCC4)cn3)nc2c(NCC2CNC(=O)C2)n1` (stereo not shown) [Compound 406], the IC50 lay within 10 to 100 nM.
Still for that read-out and setting: to `COc1ccc(Nc2nc(C(C)OC)cc3cnc(Nc4ccc(CN5CCNCC5)cn4)nc23)cc1` (stereo not shown) [Compound 450] belongs < 10 nM; to `COC(C)c1cc2cnc(Nc3ccc(CN4CCNCC4)cn3)nc2c(NC(C)C2CCOC2)n1` (stereo not shown) [Compound 404], < 10 nM; to `CC1(C)NCCN(c2ccc(Nc3ncc4cc(C(F)F)nc(N[C@H]5CC[C@H](C(=O)O)CC5)c4n3)nc2)C1=O` [Compound 442], ≥ 100 nM.
Regarding `COC(C)c1cc2cnc(Nc3ccc(CN4CCNCC4)cn3)nc2c(NC2(CO)CCCCC2)n1` (stereo not shown) [Compound 434], the IC50 was < 10 nM.
As for `COC(C)c1cc2cnc(Nc3ccc(CN4CCNCC4)cn3)nc2c(NC[C@H]2CC[C@H](C(=O)O)CC2)n1` (stereo partly shown) [Compound 435], the IC50 lay within 10 to 100 nM.
In the case of `COC(C)c1cc2cnc(Nc3ccc(CN4CCNCC4)cn3)nc2c(NC2CN3CCC2CCOC3=O)n1` (stereo not shown) [Compound 415], the IC50 was < 10 nM.
Same read-out and setting: the figure for `COC(C)c1cc2cnc(Nc3ccc(CN4CCNCC4)cn3)nc2c(Nc2cccc(C#N)c2)n1` (stereo not shown) [Compound 412] is < 10 nM; for `CO[C@H](C)c1cc2cnc(Nc3ccc(CC(=O)N4CCNCC4)cn3)nc2c(NC(C)C)n1` [Compound 518] it is < 10 nM; for `COC(C)c1cc2cnc(Nc3ccc(CN4CCNCC4)cn3)nc2c(NC2CCNCC2)n1` (stereo not shown) [Compound 399] it is 10 to 100 nM.
For the compound `COC(C)c1cc2cnc(Nc3ccc(CN4CCNCC4)cn3)nc2c(NCC2CCC(=O)N2)n1` (stereo not shown) [Compound 403], the IC50 was 10 to 100 nM.
With `CO[C@H](C)c1cc2cnc(Nc3ccc(N4C5CCC4CNC5)cn3)nc2c(NC(C)C)n1` [Compound 500], the IC50 was < 10 nM.
In the case of `CO[C@H](C)c1cc2cnc(Nc3ccc(N4CCNC(C)(C)C4=O)cn3)nc2c(NC(C)C)n1` [Compound 444], the IC50 is ≥ 100 nM.
Regarding `CO[C@H](C)c1cc2cnc(Nc3ccc(CN4CCC(O)CC4)cn3)nc2c(NC(C)C)n1` [Compound 494], the IC50 was < 10 nM.
Consider `CO[C@H](C)c1cc2cnc(Nc3ccc(OC4CC5(CNC5)C4)cn3)nc2c(NC(C)C)n1` [Compound 483], for which the IC50 is < 10 nM.
`COC(C)c1cc2cnc(Nc3ccc(OCC4(N)CC4)cn3)nc2c(NC(C)C)n1` (stereo not shown) [Compound 457]: the IC50 was < 10 nM.
As for `COC(C)c1cc2cnc(Nc3ccc(CN4CCNCC4)cn3)nc2c(NCc2ccc(=O)[nH]c2)n1` (stereo not shown) [Compound 416], the IC50 is 10 to 100 nM.
For the compound `COC(C)c1cc2cnc(Nc3ccc(CN4CCNCC4)cn3)nc2c(Nc2ccc(C#N)cc2)n1` (stereo not shown) [Compound 401], the IC50 fell in the range of 10 to 100 nM.
`CO[C@H](C)c1cc2cnc(Nc3ccc(CN4CCC(F)CC4)cn3)nc2c(NC(C)C)n1` [Compound 472]: the IC50 fell in the range of 10 to 100 nM.
For `CC(C)Nc1nc([C@@H](C)O)cc2cnc(Nc3ccc(N4CCN(CC(C)(C)C)CC4=O)cn3)nc12` [Compound 603], the IC50 is < 10 nM.
For the compound `CO[C@H](C)c1cc2cnc(Nc3ccc(N4CCNC4=O)cn3)nc2c(NC(C)C)n1` [Compound 498], the IC50 is < 10 nM.
